# Source: PubChem BioAssay AID857 (Vanderbilt High Throughput Screening Facility, 2007)
# Calls of active or inactive are those of the source.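 The calls were made as follows: active = a full or partial dose-response curve in at least two of three replicate runs; inactive = the rest.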
# Biological target: D(1B) dopamine receptor (Homo sapiens) (UniProt P21918)
# Experiment: D5 receptor allosteric modulators, concentration-response – cell-based, HEK293, CRE-luciferase, luminescence, EC30 dopamine, selectivity assay for D1 allosteric modulator project, dose response (AID 857);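 also: HEK 293 cells expressing human D5 with a CRE-driven luciferase reporter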
# Sequence of D(1B) dopamine receptor (Homo sapiens) (P21918 whole entry, looked up): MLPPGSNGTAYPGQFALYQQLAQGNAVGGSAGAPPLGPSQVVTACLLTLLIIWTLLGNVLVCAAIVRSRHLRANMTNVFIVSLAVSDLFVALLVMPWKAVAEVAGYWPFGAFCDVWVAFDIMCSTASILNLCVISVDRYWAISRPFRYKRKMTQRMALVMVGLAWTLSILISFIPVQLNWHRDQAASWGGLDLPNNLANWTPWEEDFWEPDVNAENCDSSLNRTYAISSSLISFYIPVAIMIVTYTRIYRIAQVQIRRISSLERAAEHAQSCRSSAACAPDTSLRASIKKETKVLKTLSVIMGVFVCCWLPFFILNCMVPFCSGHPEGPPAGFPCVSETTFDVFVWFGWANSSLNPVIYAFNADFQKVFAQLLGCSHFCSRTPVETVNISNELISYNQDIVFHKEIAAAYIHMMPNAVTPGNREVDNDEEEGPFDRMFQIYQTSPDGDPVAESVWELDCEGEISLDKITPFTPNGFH
Structure (SMILES),outcome,EC50 [nM]
CCc1nn(CCCC(=O)N2CCc3ccccc3C2)c(=O)c2cc3occc3n12,inactive,–
COc1ccc(-n2nc3ccccc3n2)cc1,inactive,–
CCN=C1SC(C(N)=O)CC(=O)N1CC (configuration not stated),inactive,–
Fc1ccc(NC2=NCCS2)cc1Cl,inactive,–
COc1cc(OC)cc(C(=O)Nn2cc(C(=O)N3CCN(C)CC3)c3ccccc3c2=O)c1,inactive,–
CCOc1ccccc1C1CC(c2ccccc2)Nc2nc(N)nn21 (configuration not stated),inactive,–
CC1(C)Cc2c(C#N)c(NC3CCCCC3)nc(-c3ccco3)c2CO1,inactive,–
O=S(=O)(c1ccccc1)c1nc(-c2ccco2)oc1N1CCCCCC1,inactive,–
Cc1cc(NCCCn2ccnc2)n2c(nc3ccccc32)c1C#N,inactive,–
c1ccc(-c2nn3c(-c4ccccc4)nnc3s2)cc1,inactive,–
O=C1c2ccccc2-c2onc3ccc(NCCCn4ccnc4)c1c23,inactive,–
CCOC(=O)c1sc(NC(=O)CSc2nncs2)c(C(=O)OCC)c1C,inactive,–
N#Cc1ccc(-c2ccco2)nc1SCc1ccccc1,inactive,–
Cc1ccc(Nc2nnc(SCc3cc(=O)n4ccsc4n3)s2)c(C)c1,inactive,–
NC(=O)c1c(NC(=O)CSc2nnc(-c3ccco3)n2-c2ccccc2)sc2c1CCC2,inactive,–
CCOC(=O)C(O)(CCC(O)(C(=O)OCC)C(=O)OCC)C(=O)OCC,inactive,–
Cc1cc(N2CCN(S(=O)(=O)c3ccc4c(c3)OCCO4)CC2)n2ncnc2n1,inactive,–
CC(=O)C1=C(C)NC(SCC(=O)c2ccc(F)cc2)=C(C#N)C1c1ccco1 (configuration not stated),inactive,–
COCCNC(=O)c1c(NC(=O)c2ccco2)n(Cc2ccccc2)c2nc3ccccc3nc12,inactive,–
Cn1c(=O)c2[nH]c(NCC3CCCO3)nc2n(-c2ccccc2)c1=O (configuration not stated),inactive,–
Cc1sc2nc(CN3CCN(S(=O)(=O)c4cccc5nonc45)CC3)[nH]c(=O)c2c1C,inactive,–
C=CCn1c2ccccc2c2nnc(SCC(=O)NC(C(=O)OC)C(C)C)nc21 (configuration not stated),inactive,–
O=C(CC1SC(=NC2CCCCC2)NC1=O)Nc1ccccc1 (configuration not stated),inactive,–

Structure (SMILES),outcome,EC50 [nM]
CCN(CC)CCOc1c(Br)ccc2c1sc1nc3n(c(=O)c12)CCC3,inactive,–
Clc1cccc(Nc2c3c(nc4ncnn24)CCC3)c1,inactive,–
COc1ccc(OC)c(/C=N/c2oc(-c3ccco3)c(-c3ccco3)c2C#N)c1,inactive,–
CCOC(=O)N1CCN(C(=O)C(C)(C)Oc2ccc(Cl)cc2)CC1,inactive,–
Cc1cc(C)c(C#N)c(SCc2ccc(C#N)cc2)n1,inactive,–
CCOC(=O)CCSc1nc(C)c2ccccc2n1,inactive,–
CCOC(=O)CSc1nc2c(sc(=S)n2Cc2ccco2)c(=O)n1-c1ccccc1,inactive,–
Cn1c(=O)c2c(SCc3ccccc3)nc(-c3ccco3)nc2n(C)c1=O,inactive,–
NC(=O)c1oc2ccccc2c1NC(=O)c1ccc(F)cc1,inactive,–
Cc1noc(C)c1CSc1ncnc2ccccc12,inactive,–
CCC(=O)NC(=Nc1nc2ccccc2s1)NC(=O)CC,–,1900
COc1ccc(S(=O)(=O)N2CCSC2c2ccc(OC)c(OC)c2)cc1 (configuration not stated),inactive,–
Cc1nn2c(N3CCCC3)cc(C(C)C)nc2c1-c1ccccc1,inactive,–
CCc1nc2ccccc2c(C(=O)OCC(=O)NCc2ccco2)c1C,inactive,–
CCC(C)Nc1nc(OC)nc(N(C)C#N)n1 (configuration not stated),inactive,–
COc1ccccc1CNC(=O)c1ccc(NS(=O)(=O)c2c(C)noc2C)cc1,inactive,–
OCCNc1ncnc2c1c(-c1ccccc1)c(-c1ccccc1)n2Cc1ccco1,inactive,–
O=C(CCNS(=O)(=O)c1ccc2c(c1)CCC(=O)N2)NCc1ccc2c(c1)OCO2,inactive,–
CN1CCN(CC(O)COCc2ccc3c(c2)OCO3)CC1 (configuration not stated),inactive,–
CCOc1ncccc1C(=O)OCc1nnc(-c2ccccc2)o1,inactive,–
CCOC(=O)c1ccc(Oc2cc(C)nc(SC)n2)cc1,inactive,–
COC(=O)c1ccccc1NC(=O)c1ccc2c(c1)OCCO2,inactive,–
Cc1ccc(Cn2c(-n3nc(C)cc3C)nc3c2c(=O)[nH]c(=O)n3C)cc1,inactive,–

Structure (SMILES),outcome,EC50 [nM]
CCCCN(CC)C(=O)c1ccc(Cl)c(Cl)c1,inactive,–
CCOC(=O)NCCc1ccc(OC)cc1,inactive,–
CCn1c(SCc2cccnc2)nc2c1c(=O)n(C)c(=O)n2C,inactive,–
Cc1cc(=O)oc2cc(OCC(=O)NCCc3nc4ccccc4[nH]3)ccc12,inactive,–
Cc1ccc(CCNS(=O)(=O)c2cnc[nH]2)cc1,inactive,–
CCCCCn1c(NCc2ccco2)nc2ccccc21,inactive,–
COc1ccc(OC)c(NC(=O)CSc2nc3ccccc3c(=O)n2CCNC(C)=O)c1,inactive,–
CCSc1nc2c(c(=O)n1Cc1ccccc1)SC(C)C2 (configuration not stated),inactive,–
COC(=O)c1sc2ccccc2c1C(=O)OC,inactive,–
Cc1nc(-c2ccc(S(=O)(=O)N3CCCCCC3)cc2)cs1,inactive,–
CCn1c2ccccc2c2nc3ccccc3nc21,inactive,–
C=CCn1c(SCc2nc3c(c(=O)[nH]c(=O)n3CCCC)n2CCC)nnc1-c1ccccc1,inactive,–
CCN(CCCNC(=O)CN(C)S(=O)(=O)c1cccc2nsnc12)c1cccc(C)c1,inactive,–
Fc1ccc(-c2cc(C(F)(F)F)nc(-n3cncn3)n2)cc1,inactive,–
CC(C)OC(=O)CSc1nnc(-c2cnccn2)n1-c1ccc(Cl)cc1,inactive,–
Cc1csc2c(C#N)c(=O)c3c(n12)CCC3,inactive,–
Cc1sc2ncnc(SCC(=O)N3CCCC3)c2c1C,inactive,–
Cc1ccc(-c2cc(-c3ccc(C)o3)nc(N)c2C#N)cc1,inactive,–
COc1ccc2c(c1)C(=O)N(c1ccccc1OC)C(=O)C2(C)C,inactive,–
COC(=O)c1ccccc1NC(=O)COc1ccc(S(=O)(=O)N2CCCC2)cc1C,inactive,–
COCc1cc(C)nc2sc(C(=O)N3CCN(c4ccccc4)CC3)c(N)c12,–,212
CCCCn1c(=NC(=O)c2ccco2)c(C(=O)OCC)cc2c(=O)n3ccccc3nc21,inactive,–
CSc1ccccc1NC(=O)c1onc(C)c1Cl,inactive,–

Structure (SMILES),outcome,EC50 [nM]
N#Cc1nc(-c2ccccc2Cl)oc1N1CCOCC1,inactive,–
Cn1c(=O)c2c(-c3ccccc3)n(N3CCOCC3)cc2n(C)c1=O,inactive,–
COc1ccc(OC)c(C2C=C(c3ccc(C)c(C)c3)Nc3nnnn32)c1 (configuration not stated),inactive,–
NC(=O)NC(=O)Nc1ccccc1Cl,inactive,–
Cc1nc2ccc(CCO)cc2s1,inactive,–
Cc1noc(C)c1S(=O)(=O)N1CCCC(C(=O)NCc2ccccn2)C1 (configuration not stated),inactive,–
C=CCNC(=O)c1ccccc1NC(=O)c1ccccc1,inactive,–
CCCCn1c(=NC(=O)c2cccnc2)c(C(=O)OCC)cc2c(=O)n3ccccc3nc21,–,1070
O=C1COc2ccccc2N1Cc1ccccc1Cl,inactive,–
CCOC(=O)c1c(C)c(C(=O)NCc2ccccc2OC)c(C)n1C,inactive,–
N#Cc1nc(-c2cccs2)oc1NCC1CCCO1 (configuration not stated),inactive,–
COc1cccc(N2C(=O)C3ON(c4ccccc4)C(c4cccs4)C3C2=O)c1 (configuration not stated),inactive,–
CCOc1cc(C2CC(=O)NC(SCC)=C2C#N)ccc1O (configuration not stated),inactive,–
CCOC(=O)c1c(C)oc2c1c(C=NCc1ccccn1)c(O)c1ccccc12,inactive,–
CC1CCCCN1C(=O)CSc1nc(C2CC2)nc2c1cnn2-c1ccccc1 (configuration not stated),inactive,–
C/C=C/Cn1c(SCCCc2ccccc2)nc2c1c(=O)[nH]c(=O)n2C,inactive,–
Cc1c(C(=O)OCC(C)C)[nH]c2c1C(=O)CC(c1ccco1)C2 (configuration not stated),–,1750
Cc1[nH]n(-c2ccccc2)c(=O)c1S(=O)(=O)c1ccccc1,inactive,–
Cc1cc(O)c(C=Nc2cccc(Cl)c2)c(=O)o1,inactive,–
N#CC1=C(N)N(c2ccccc2)C2=C(C(=O)CCC2)C1c1ccsc1 (configuration not stated),inactive,–
Cc1cccc(C2CC(c3ccc(F)cc3)Nc3nc(N)nn32)c1 (configuration not stated),inactive,–
COc1ccc(C2CC(c3ccc(Cl)cc3Cl)Nc3nc(N)nn32)cc1 (configuration not stated),inactive,–
COc1ccccc1NC(=O)N(Cc1ccc2c(c1)OCO2)Cc1nc2ccccc2c(=O)[nH]1,inactive,–

Structure (SMILES),outcome,EC50 [nM]
CCOC(=O)c1[nH]cnc1C(=O)Nc1ccccn1,inactive,–
COc1ccc(-c2coc3cc(O)ccc3c2=O)cc1OC,inactive,–
OCCn1nc2c3ccccc3nc-2n(-c2ccccc2)c1=S,inactive,–
C=CCNc1sc(C(=O)C(C)(C)C)c(N)c1C#N,inactive,–
CCOC(=O)Cc1[nH]nc2c1C(c1cccc(OC)c1OC)C(C#N)=C(N)O2 (configuration not stated),inactive,–
CCOc1ccc(-c2noc(COC)n2)cc1OC,inactive,–
CC(=O)N=c1sc2nc3ccccc3nc2n1N(C(C)=O)C(C)=O,inactive,–
COc1ccc(NC(=O)c2ccc(NS(=O)(=O)c3c(C)noc3C)cc2)cc1OC,inactive,–
N#Cc1c(N)nc(-c2ccccc2)nc1-c1ccccc1,inactive,–
O=C1C(Cl)=C(NCC2CCCO2)C(=O)N1Cc1ccccc1 (configuration not stated),inactive,–
O=C(CCSc1nc2ccccc2o1)N1CCOCC1,inactive,–
CCOC(=O)c1ccc(N2CN=C3SCC(=O)N3C2)cc1,inactive,–
CNc1nc(C)c(C(=O)OCC(=O)OC)s1,inactive,–
O=S(=O)(Nc1cc(Cl)ccc1N1CCCCC1)c1cccs1,inactive,–
Cc1cc(N)n(-c2nc(-c3cccnc3)nc3ccccc23)n1,inactive,–
C/C(CCc1oc2ccccc2c1-c1ccc(C)o1)=N/O,inactive,–
CCOc1ccc(N/C(SC)=C(/C#N)C(N)=O)cc1,inactive,–
O=C1CSc2ccccc2N1Cc1ccccc1F,inactive,–
COc1ccc(-c2nnc(-c3ccc(Br)o3)o2)cc1OC,inactive,–
CC(C)C1C(C#N)=C(N)Oc2n[nH]c(-c3ccccc3)c21 (configuration not stated),inactive,–
